Where no end group is shown, it is not given here.
Tests used:
Assay in all cases: biochemical
Type in all cases: binding
DRB4*0101 = DRB4*0101 (Homo sapiens, UniProt P01903+P13762, G164S)
DRB5*0101 = DRB5*0101 (Homo sapiens, UniProt P01903+Q30154)
DRB3*0101 = DRB3*0101 (Homo sapiens, UniProt P01903+P79483)

Row | Molecule | IC50 (DRB4*0101) [µM] | IC50 (DRB5*0101) [µM] | IC50 (DRB3*0101) [µM]
1 | CSCC[C@H](NC(=O)[C@@H](NC(=O)[C@@H](NC(=O)[C@@H](NC(=O)[C@H](CS)NC(=O)CNC(=O)CNC(=O)[C@H](Cc1c[nH]cn1)NC(=O)[C@H](CCC(=O)O)NC(=O)[C@H](CC(C)C)NC(=O)[C@@H](NC(=O)[C@@H](NC(=O)[C@H](CC(=O)O)NC(=O)[C@@H](N)C(C)C)C(C)C)C(C)C)C(C)C)[C@@H](C)O)[C@@H](C)O)C(=O)N[C@@H](C)C(=O)O [Envelope 21-35] | 4.5 | – | –
2 | LPWTSGATTETPTWN [Envelope 216-230] | 11.6 | – | –
3 | CC(C)C[C@H](NC(=O)[C@H](CCCCN)NC(=O)[C@@H](NC(=O)[C@H](CCCCN)NC(=O)[C@H](CCC(N)=O)NC(=O)[C@H](Cc1ccc(O)cc1)NC(=O)[C@H](CCC(=O)O)NC(=O)[C@@H](N)[C@@H](C)O)[C@@H](C)O)C(=O)N[C@@H](CC(N)=O)C(=O)N[C@@H](CC(=O)O)C(=O)N[C@@H](Cc1c[nH]c2ccccc12)C(=O)N[C@@H](CC(=O)O)C(=O)N[C@@H](Cc1ccccc1)C(=O)N[C@H](C(=O)N[C@H](C(=O)O)C(C)C)C(C)C [NS3 393-407] | – | 15.9 | 3.7
4 | CC[C@H](C)[C@H](NC(=O)[C@H](CC(=O)O)NC(=O)[C@@H](N)[C@@H](C)O)C(=O)N[C@@H](CO)C(=O)N[C@@H](CCC(=O)O)C(=O)N[C@@H](CCSC)C(=O)NCC(=O)N[C@@H](C)C(=O)N[C@@H](CC(N)=O)C(=O)N[C@@H](Cc1ccccc1)C(=O)N[C@@H](CCCCN)C(=O)N[C@@H](C)C(=O)N[C@@H](CC(=O)O)C(=O)N[C@@H](CCCNC(=N)N)C(=O)N[C@H](C(=O)O)C(C)C [NS3 409-423] | – | 0.05 | 0.168
5 | CC(C)C[C@H](NC(=O)[C@H](CCCNC(=N)N)NC(=O)[C@H](CCCCN)NC(=O)CNC(=O)[C@H](CC(N)=O)NC(=O)[C@H](Cc1ccc(O)cc1)NC(=O)[C@@H](NC(=O)[C@H](CC(C)C)NC(=O)[C@@H](N)C(C)C)[C@@H](C)O)C(=O)N[C@@H](CCC(=O)O)C(=O)N1CCC[C@H]1C(=O)N[C@@H](CC(N)=O)C(=O)N[C@@H](Cc1c[nH]c2ccccc12)C(=O)N[C@@H](C)C(=O)N[C@@H](CO)C(=O)O [NS3 57-71] | – | 3.76 | 5.43
6 | CC[C@H](C)[C@H](NC(=O)[C@@H]1CCCN1C(=O)[C@H](CO)NC(=O)CNC(=O)[C@H](CO)NC(=O)[C@@H](NC(=O)CNC(=O)[C@@H]1CCCN1C(=O)[C@H](CCCCN)NC(=O)[C@H](Cc1ccccc1)NC(=O)[C@H](CC(=O)O)NC(=O)[C@H](CC(C)C)NC(=O)[C@H](C)NC(=O)[C@@H](NC(=O)[C@H](C)N)[C@@H](C)CC)[C@@H](C)O)C(=O)O [NS3 125-139] | – | 4.35 | 9.22
7 | CC[C@H](C)[C@H](NC(=O)CNC(=O)[C@H](CO)NC(=O)CNC(=O)[C@H](CS)NC(=O)[C@H](CCCCN)NC(=O)[C@H](CC(C)C)NC(=O)[C@H](CCC(=O)O)NC(=O)[C@H](CCCCN)NC(=O)CNC(=O)[C@H](CCCCN)NC(=O)[C@H](Cc1c[nH]c2ccccc12)NC(=O)[C@H](CC(N)=O)NC(=O)[C@@H](NC(=O)[C@@H](N)C(C)C)[C@@H](C)CC)C(=O)O [NS1 5-19] | – | 15.8 | 6.3
8 | CC[C@H](C)[C@H](N)C(=O)N[C@@H](CCCNC(=N)N)C(=O)N[C@@H](Cc1ccc(O)cc1)C(=O)N[C@@H](CCC(N)=O)C(=O)N[C@H](C(=O)N[C@H](C(=O)N[C@@H](C)C(=O)N[C@H](C(=O)N[C@@H](CCCCN)C(=O)N[C@@H](CO)C(=O)N[C@@H](CCC(=O)O)C(=O)N[C@@H](Cc1c[nH]cn1)C(=O)N[C@H](C(=O)NCC(=O)N[C@@H](CCCNC(=N)N)C(=O)O)[C@@H](C)O)[C@@H](C)O)[C@@H](C)O)[C@@H](C)O [NS3 241-255] | – | 0.017 | 12.8
9 | CSCC[C@H](NC(=O)CNC(=O)CNC(=O)[C@H](Cc1c[nH]cn1)NC(=O)[C@H](CCCCN)NC(=O)[C@H](CCCNC(=N)N)NC(=O)[C@H](CCC(N)=O)NC(=O)[C@H](CC(C)C)NC(=O)[C@H](CCCNC(=N)N)NC(=O)[C@H](CCC(=O)O)NC(=O)[C@@H](N)CC(C)C)C(=O)N[C@@H](CC(C)C)C(=O)N[C@H](C(=O)N[C@@H](CCCNC(=N)N)C(=O)N[C@@H](CC(N)=O)C(=O)N1CCC[C@H]1C(=O)N[C@@H](CC(C)C)C(=O)O)C(C)C [NS5 193-209] | – | 1.2 | 12
10 | CC(C)[C@H](NC(=O)[C@H](CCC(=O)O)NC(=O)[C@H](Cc1ccc(O)cc1)NC(=O)[C@H](CO)NC(=O)CNC(=O)[C@H](Cc1c[nH]cn1)NC(=O)[C@H](Cc1ccc(O)cc1)NC(=O)[C@H](C)NC(=O)[C@H](Cc1c[nH]c2ccccc12)NC(=O)[C@@H](NC(=O)[C@H](CCCCN)NC(=O)[C@H](Cc1ccc(O)cc1)NC(=O)[C@@H]1CCCN1C(=O)[C@H](CC(N)=O)NC(=O)[C@H](CCC(=O)O)NC(=O)[C@@H](N)CC(=O)O)[C@@H](C)O)C(=O)N[C@@H](CCCCN)C(=O)O [NS5 295-311] | – | 5.29 | 0.98
11 | CC[C@H](C)[C@H](NC(=O)[C@@H](NC(=O)[C@H](CCCNC(=N)N)NC(=O)[C@H](CC(=O)O)NC(=O)[C@H](C)NC(=O)[C@H](CCCCN)NC(=O)[C@H](Cc1ccccc1)NC(=O)[C@H](CC(N)=O)NC(=O)[C@H](C)NC(=O)CNC(=O)[C@H](CCSC)NC(=O)[C@@H](N)CCC(=O)O)C(C)C)C(=O)N[C@@H](CC(=O)O)C(=O)N1CCC[C@H]1C(=O)N[C@@H](CCCNC(=N)N)C(=O)O [NS3 413-427] | – | 1.2 | 0.096
12 | CC[C@H](C)[C@H](NC(=O)[C@H](CCCCN)NC(=O)[C@H](CCCCN)NC(=O)[C@H](CCC(=O)O)NC(=O)[C@H](CC(C)C)NC(=O)[C@@H]1CCCN1C(=O)[C@H](Cc1c[nH]cn1)NC(=O)[C@@H]1CCCN1C(=O)[C@H](CC(N)=O)NC(=O)[C@H](CCC(=O)O)NC(=O)[C@H](CC(C)C)NC(=O)[C@H](CC(=O)O)NC(=O)[C@H](C)NC(=O)[C@@H](N)CCCCN)C(=O)N[C@H](C(=O)N[C@@H](CCC(N)=O)C(=O)N[C@@H](Cc1c[nH]c2ccccc12)C(=O)O)[C@@H](C)O [NS5 630-646] | – | 15.5 | 13.7
13 | CC[C@H](C)[C@H](N)C(=O)N[C@@H](Cc1ccccc1)C(=O)N[C@@H](CCSC)C(=O)N[C@H](C(=O)N[C@@H](C)C(=O)N[C@H](C(=O)N1CCC[C@H]1C(=O)N1CCC[C@H]1C(=O)NCC(=O)N[C@H](C(=O)N[C@@H](C)C(=O)N[C@@H](CC(=O)O)C(=O)N[C@@H](C)C(=O)N[C@@H](Cc1ccccc1)C(=O)N1CCC[C@H]1C(=O)O)[C@@H](C)O)[C@@H](C)O)[C@@H](C)O [NS3 313-327] | – | 13.9 | 9.44
14 | CSCC[C@H](NC(=O)[C@@H](NC(=O)[C@H](CCC(N)=O)NC(=O)[C@H](Cc1ccccc1)NC(=O)[C@H](CC(N)=O)NC(=O)[C@H](CCCCN)NC(=O)[C@@H]1CCCN1C(=O)[C@H](CC(N)=O)NC(=O)[C@H](CCCCN)NC(=O)CNC(=O)[C@@H]1CCCN1C(=O)[C@@H](N)CCC(=O)O)[C@@H](C)O)C(=O)N1CCC[C@H]1C(=O)NCC(=O)N[C@H](C(=O)O)[C@@H](C)O [NS3 101-115] | – | 1.08 | 4.12
15 | CC(C)[C@H](NC(=O)[C@H](CCC(=O)O)NC(=O)[C@H](Cc1ccc(O)cc1)NC(=O)[C@H](CO)NC(=O)CNC(=O)[C@H](Cc1c[nH]cn1)NC(=O)[C@H](Cc1ccc(O)cc1)NC(=O)[C@H](C)NC(=O)[C@H](Cc1c[nH]c2ccccc12)NC(=O)[C@@H](N)[C@@H](C)O)C(=O)N[C@@H](CCCCN)C(=O)N[C@@H](C)C(=O)N[C@H](C(=O)NCC(=O)N[C@@H](CO)C(=O)N[C@@H](C)C(=O)O)[C@@H](C)O [NS5 301-316] | – | 1.83 | 0.536

Reference: paper PMC3794980, “Identification of Conserved and HLA Promiscuous DENV3 T-Cell Epitopes” (PLoS Neglected Tropical Diseases, 2013)
